Assay results reported in patent US20080213213A1, “Method For the Treatment of Myelodysplastic Syndromes Using (+)-2-[1-(3-Ethoxy-4-Methoxyphenyl)-2-Methylsulfonylethyl]-4-Acetylaminoisoindoline-1,3-Dione” (priority 2004, published 2008).

How the values were obtained:
[1] = tested on: production of various cytokines; experiment: In vitro studies of pharmacological activity profile and cytokine production; format: cell-based, human
Method: The pharmacological properties of 3-(3,4-dimethoxy-phenyl)-3-(1-oxo-1,3-dihydro-isoindol-2-yl)-propionamide, including activity comparisons with thalidomide, are characterized in in vitro studies. Studies examine the effects of 3-(3,4-dimethoxy-phenyl)-3-(1-oxo-1,3-dihydro-isoindol-2-yl)-propionamide on the production of various cytokines. In addition, a safety pharmacology study of -(3,4-dimethoxy-phenyl)-3-(1-oxo-1,3-dihydro-isoindol-2-yl)-propionamide is conducted in dogs and the effects of the compound on ECG parameters are examined further as part of three repeat-dose toxicity studies in primates.
Inhibition of TNF-α production following LPS-stimulation of human PBMC and human whole blood by 3-(3,4-dimethoxy-phenyl)-3-(1-oxo-1,3-dihydro-isoindol-2-yl)-propionamide is investigated in vitro (Muller et al., Bioorg. Med. Chem. Lett. 9:1625-1630, 1999). The IC50's of 3-(3,4-dimethoxy-phenyl)-3-(1-oxo-1,3-dihydro-isoindol-2-yl)-propionamide for inhibiting production of TNF-α following LPS-stimulation of PBMC and human whole blood is measured.
(§1) The pharmacological effects of 3-(3,4-dimethoxy-phenyl)-3-(1-oxo-1,3-dihydro-isoindol-2-yl)-propionamide derive from its action as an inhibitor of cellular response to receptor-initiated trophic signals (e.g., IGF-1, VEGF, cyclooxygenase-2), and other activities.

angiogenic response = experiment: In vitro pharmacology: angiogenic response; format: cell-based
Text: as §1

AML cells = experiment: Mitogenic response to VEGF in AML cells; format: cell-based
Text: as §1

[2] = tested on: death-receptor initiated programmed cell death; experiment: In vitro pharmacology: death-receptor initiated programmed cell death; format: cell-based
Text: as §1

[3] = tested on: adhesion molecules and apoptosis inhibitory proteins (e.g., cFLIP, cIAP); experiment: In vitro pharmacology: adhesion molecules and apoptosis inhibitory proteins; format: cell-based
Text: as §1

[4] = tested on: MDS bone marrow progenitor; experiment: MDS vs normal bone marrow progenitor formation in pre-clinical models; format: cell-based
Text: as §1

MDS patients = settings: cited from earlier work

COc1ccc(C(CC(N)=O)N2Cc3ccccc3C2=O)cc1OC (stereo not drawn) [3-(3,4-dimethoxy-phenyl)-3-(1-oxo-1,3-dihydro-isoindol-2-yl)-propionamide]
generation of inflammatory cytokines [1]: suppresses the generation of inflammatory cytokines | angiogenic response (angiogenic response): suppresses angiogenic response | mitogenic response to VEGF (AML cells): abrogates mitogenic response to VEGF | ligand-induced Akt-phosphorylation (AML cells; VEGF): extinguishing ligant-induced Akt-phosphorylation | sensitivity to death-receptor initiated programmed cell death [2]: promotes sensitivity to death-receptor initiated programmed cell death | adhesion molecules and apoptosis inhibitory proteins (e.g., cFLIP, cIAP) [3]: down-regulates adhesion molecules and apoptosis inhibitory proteins | MDS vs normal bone marrow progenitor formation [4]: selectively suppresses MDS vs normal bone marrow progenitor formation

recombinant human EPO: erythropoietin (EPO), hematopoietic growth factor
patients with sustained improvement in hemoglobin or decrease in transfusion requirement (MDS patients): less than 25%

recombinant human GM-CSF: granulocyte macrophage colony stimulating factor (GM-CSF)
granulocytopoiesis in treated patients (MDS patients): can restore granulocytopoiesis | improvement in hemoglobin or platelet counts (MDS patients): little or no improvement

B1: G-CSF: granulocyte colony stimulating factor (G-CSF) (protein, UniProt P09919 31-207, looked up)
Granulocyte …: TPLGPASSLPQSFLLKCLEQVRKIQGDGAALQEKLVSECATYKLCHPEELVLLGHSLGIPWAPLSSCPSQALQLAGCLSQLHSGLFLYQGLLQALEGISPELGPTLDTLQLDVADFATTIWQQMEELGMAPALQPTQGAMPAFASAFQRRAGGVLVASHLQSFLEVSYRVLRHLAQP
granulocytopoiesis in treated patients (MDS patients): can restore granulocytopoiesis | improvement in hemoglobin or platelet counts (MDS patients): little or no improvement
